Laboratory results reported in ChEMBL document CHEMBL1201862, “PubChem BioAssay data set” (2004).
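96-well plates; 48 h exposure; 5 concentrations. Endpoints by linear interpolation between flanking doses. Not reached: highest tested concentration assigned. The concentration for 50% growth inhibition is given as GI50.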 Calls of active or inactive are those of the source. No stated cut-off is given here; in the data, active = GI50 up to about 1.1 µM and inactive = higher.

What was measured:
Assay in all cases: NCI tumour cell line growth inhibition, 48 h
[1] = test system: NCI-H226
[2] = test system: M14
[3] = test system: RXF 393
[4] = test system: MDA-MB-435
[5] = test system: NCI-H460
[6] = test system: NCI/ADR-RES
[7] = test system: SW-620
[8] = test system: RPMI-8226
[9] = test system: SK-MEL-28
[10] = test system: HOP-62
[11] = test system: U-251
[12] = test system: ACHN
[13] = test system: OVCAR-3
[14] = test system: HCT-15
[15] = test system: SF-268
[16] = test system: SK-OV-3
[17] = test system: UACC-62
[18] = test system: MOLT-4
[19] = test system: IGROV-1
[20] = test system: HL-60

Compound	GI50 [1]	GI50 [2]	GI50 [3]	GI50 [4]	GI50 [5]	GI50 [6]	GI50 [7]	GI50 [8]	GI50 [9]	GI50 [10]	GI50 [11]	GI50 [12]	GI50 [13]	GI50 [14] [µM]	GI50 [15]	GI50 [16]	GI50 [17]	GI50 [18]	GI50 [19]	GI50 [20]
FC(F)(F)c1nc2cc(SSc3cc4nc(C(F)(F)F)[nH]c4cc3Cl)c(Cl)cc2[nH]1	53.3 µM (inactive)	> 100 µM (inactive)	> 100 µM (inactive)	> 100 µM (inactive)	> 100 µM (inactive)	> 100 µM (inactive)	> 100 µM (inactive)	> 100 µM (inactive)	> 100 µM (inactive)	> 100 µM (inactive)	> 100 µM (inactive)	> 100 µM (inactive)	45.2 µM (inactive)	> 100	> 100 µM (inactive)	> 100 µM (inactive)	> 100 µM (inactive)	> 100 µM (inactive)	> 100 µM (inactive)	> 100 µM (inactive)
CNc1ccc(Cl)cc1C(=O)N1CCC[C@H]1CO	> 96.4 µM (inactive)	> 100 µM (inactive)	> 100 µM (inactive)	> 100 µM (inactive)	> 100 µM (inactive)	> 100 µM (inactive)	> 100 µM (inactive)	> 100 µM (inactive)	> 100 µM (inactive)	> 100 µM (inactive)	> 100 µM (inactive)	> 100 µM (inactive)	> 100 µM (inactive)	> 100	> 100 µM (inactive)	> 100 µM (inactive)	> 100 µM (inactive)	> 100 µM (inactive)	> 84.7 µM (inactive)	> 100 µM (inactive)
CC(C)CCCC(C)[C@H]1CCC2[C@@H]3CCC4Cc5nc6c(nc5C[C@]4(C)C3CC[C@@]21C)CC1CC[C@@H]2C(CC[C@@]3(C)C2CC[C@@H]3C(C)CCCC(C)C)[C@@]1(C)C6 (stereo not given in full)	> 100 µM (inactive)	> 100 µM (inactive)	> 100 µM (inactive)	> 100 µM (inactive)	> 100 µM (inactive)	> 100 µM (inactive)	> 100 µM (inactive)	> 100 µM (inactive)	> 100 µM (inactive)	> 100 µM (inactive)	> 100 µM (inactive)	> 100 µM (inactive)	> 100 µM (inactive)	> 100	> 100 µM (inactive)	> 100 µM (inactive)	> 100 µM (inactive)	> 100 µM (inactive)	> 100 µM (inactive)	> 100 µM (inactive)
CS(=O)(=O)c1nc(Cl)c(Cl)c(C#N)c1Cl	13.2 µM (inactive)	1.91 µM (inactive)	1.61 µM (inactive)	2.01 µM (inactive)	11.5 µM (inactive)	2.25 µM (inactive)	1.14 µM (inactive)	2.32 µM (inactive)	2.12 µM (inactive)	19.3 µM (inactive)	4.9 µM (inactive)	2.6 µM (inactive)	2.08 µM (inactive)	1.61	6.76 µM (inactive)	6.75 µM (inactive)	3.31 µM (inactive)	0.838 µM (active)	6.59 µM (inactive)	1.15 µM (inactive)
CC(C)[C@@H]1ON1C(C)c1ccccc1 (stereo not given in full)	> 100 µM (inactive)	> 100 µM (inactive)	> 100 µM (inactive)	> 100 µM (inactive)	> 100 µM (inactive)	> 100 µM (inactive)	> 100 µM (inactive)	> 100 µM (inactive)	> 100 µM (inactive)	> 100 µM (inactive)	> 100 µM (inactive)	> 100 µM (inactive)	> 100 µM (inactive)	79.6	> 100 µM (inactive)	> 100 µM (inactive)	> 100 µM (inactive)	> 100 µM (inactive)	70.6 µM (inactive)	94.8 µM (inactive)
C=CCN1CN(C2CCCCC2)CSC1=S	14.6 µM (inactive)	2.77 µM (inactive)	4.04 µM (inactive)	0.944 µM (active)	4.12 µM (inactive)	8.83 µM (inactive)	0.733 µM (active)	1.04 µM (active)	5.18 µM (inactive)	5.57 µM (inactive)	3.59 µM (inactive)	4.02 µM (inactive)	7.01 µM (inactive)	2.54	2.32 µM (inactive)	14.4 µM (inactive)	5.86 µM (inactive)	1.11 µM (active)	8.34 µM (inactive)	0.129 µM (active)
CC1CC(C)CN(S(=O)(=O)c2cc(Cl)c(Oc3ccc([N+](=O)[O-])cc3Cl)c(Cl)c2)C1 (stereo not given)	> 100 µM (inactive)	> 100 µM (inactive)	> 100 µM (inactive)	> 100 µM (inactive)	> 100 µM (inactive)	> 100 µM (inactive)	> 100 µM (inactive)	> 100 µM (inactive)	> 100 µM (inactive)	> 100 µM (inactive)	> 100 µM (inactive)	> 100 µM (inactive)	> 100 µM (inactive)	> 100	> 100 µM (inactive)	> 100 µM (inactive)	> 100 µM (inactive)	> 100 µM (inactive)	> 100 µM (inactive)	> 100 µM (inactive)
COc1ccc(-n2c(N)c(C#N)[nH]c2=O)cc1	> 10 µM (inactive)	> 10 µM (inactive)	> 10 µM (inactive)	> 10 µM (inactive)	> 10 µM (inactive)	> 10 µM (inactive)	> 10 µM (inactive)	> 10 µM (inactive)	> 10 µM (inactive)	> 10 µM (inactive)	> 10 µM (inactive)	> 10 µM (inactive)	> 10 µM (inactive)	> 10	> 10 µM (inactive)	> 10 µM (inactive)	> 10 µM (inactive)	> 10 µM (inactive)	> 10 µM (inactive)	> 10 µM (inactive)
O/N=N/c1ccccn1.OCC1OC2OC3C(CO)OC(OC4C(CO)OC(OC5C(CO)OC(OC6C(CO)OC(OC7C(CO)OC(OC1C(O)C2O)C(O)C7O)C(O)C6O)C(O)C5O)C(O)C4O)C(O)C3O (stereo not given)	> 100 µM (inactive)	30.8 µM (inactive)	> 100 µM (inactive)	19.2 µM (inactive)	68.7 µM (inactive)	31.9 µM (inactive)	42.1 µM (inactive)	27.3 µM (inactive)	62.5 µM (inactive)	> 100 µM (inactive)	> 100 µM (inactive)	> 100 µM (inactive)	40.8 µM (inactive)	> 100	> 100 µM (inactive)	> 100 µM (inactive)	47.9 µM (inactive)	> 100 µM (inactive)	> 100 µM (inactive)	28.1 µM (inactive)
CCOC(=O)c1c(C)n(-c2ccc(C)cc2)c2c1cc(O)c1[nH]c3c(c12)CCCC3	23.8 µM (inactive)	16.6 µM (inactive)	12 µM (inactive)	20.1 µM (inactive)	24.8 µM (inactive)	39.8 µM (inactive)	17.6 µM (inactive)	4.07 µM (inactive)	16.3 µM (inactive)	27.9 µM (inactive)	14.8 µM (inactive)	22.1 µM (inactive)	12.9 µM (inactive)	24.3	17.5 µM (inactive)	87.3 µM (inactive)	17.3 µM (inactive)	8.77 µM (inactive)	13.8 µM (inactive)	7.4 µM (inactive)
C=C1CC2(CCCC3(CC(=C)C(=O)O3)C2(C)C)OC1=O (stereo not given)	2.22 µM (inactive)	2.56 µM (inactive)	3.86 µM (inactive)	2.75 µM (inactive)	18.7 µM (inactive)	13.2 µM (inactive)	1.39 µM (inactive)	0.47 µM (active)	2.05 µM (inactive)	13.9 µM (inactive)	1.42 µM (inactive)	1.07 µM (active)	1.96 µM (inactive)	0.491	19.2 µM (inactive)	20.5 µM (inactive)	2 µM (inactive)	0.302 µM (active)	8.83 µM (inactive)	2.4 µM (inactive)
CCN(CC)c1ncnc2c1ncn2CCNC(CO)(CO)CO	> 100 µM (inactive)	> 100 µM (inactive)	> 100 µM (inactive)	> 100 µM (inactive)	> 100 µM (inactive)	> 100 µM (inactive)	> 100 µM (inactive)	> 100 µM (inactive)	> 100 µM (inactive)	> 100 µM (inactive)	> 100 µM (inactive)	> 100 µM (inactive)	> 100 µM (inactive)	> 100	> 100 µM (inactive)	> 100 µM (inactive)	> 100 µM (inactive)	> 100 µM (inactive)	> 100 µM (inactive)	> 100 µM (inactive)
Oc1ccc(-c2nc(-c3ccc4ccccc4n3)c(-c3ccc(F)cc3)[nH]2)cc1	14.2 µM (inactive)	11 µM (inactive)	15.2 µM (inactive)	12.2 µM (inactive)	5.45 µM (inactive)	4.74 µM (inactive)	14.3 µM (inactive)	5.62 µM (inactive)	17.4 µM (inactive)	18 µM (inactive)	10.6 µM (inactive)	12.3 µM (inactive)	6.19 µM (inactive)	10.7	13 µM (inactive)	15.3 µM (inactive)	11.5 µM (inactive)	1.87 µM (inactive)	13 µM (inactive)	5.94 µM (inactive)
Nc1nc2c(ncn2Cc2ccc(CO)cc2)c(=O)[nH]1	> 100 µM (inactive)	> 100 µM (inactive)	> 100 µM (inactive)	> 100 µM (inactive)	> 100 µM (inactive)	> 100 µM (inactive)	> 100 µM (inactive)	> 100 µM (inactive)	> 100 µM (inactive)	> 100 µM (inactive)	> 100 µM (inactive)	> 100 µM (inactive)	> 100 µM (inactive)	> 100	> 100 µM (inactive)	> 100 µM (inactive)	> 100 µM (inactive)	> 100 µM (inactive)	> 100 µM (inactive)	4.42 µM (inactive)
